Assay results: article PMC7765794 (Nutrients, 2020)

Columns and labels:
human ODC = biological target: T1, human ODC (Homo sapiens, UniProt P11926); assay: ODC enzyme activity assay and inhibition study (CO2-L3K coupled spectrophotometric assay); type: biochemical; conditions: for IC50: purified human ODC, 37 °C, 10 mM ornithine, 0.2 mM PLP, n = 3, read-out: IC50 to ornithine decarboxylase (ODC);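 on all read-outs here: His-tagged human ODC expressed in Escherichia coli, activity followed as decarboxylation coupled via PEP carboxylation and malate formation to NADH analog oxidation, absorbance drop at 405 nm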
T1 construct: His-tag (N); made in house; host or cells: Escherichia coli JM109
T1 sequence (P11926 1-461): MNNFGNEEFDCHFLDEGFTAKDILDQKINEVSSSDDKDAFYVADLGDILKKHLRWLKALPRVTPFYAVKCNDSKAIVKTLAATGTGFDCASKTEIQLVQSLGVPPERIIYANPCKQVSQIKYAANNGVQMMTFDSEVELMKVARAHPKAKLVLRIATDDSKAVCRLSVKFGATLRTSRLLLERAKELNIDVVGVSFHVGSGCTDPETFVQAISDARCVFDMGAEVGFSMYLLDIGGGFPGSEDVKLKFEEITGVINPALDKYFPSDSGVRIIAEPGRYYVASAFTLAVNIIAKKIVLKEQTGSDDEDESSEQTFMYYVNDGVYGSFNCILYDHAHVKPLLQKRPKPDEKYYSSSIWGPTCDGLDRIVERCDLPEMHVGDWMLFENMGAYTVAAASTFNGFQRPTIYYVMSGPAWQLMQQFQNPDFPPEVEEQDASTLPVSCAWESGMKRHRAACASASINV

HL-60 cells = assay: Cell viability (trypan blue), acridine orange staining and DNA fragmentation in HL-60 cells; type: cell-based, human; conditions: for apoptosis in HL-60 cells (apoptotic bodies, DNA fragmentation): 50 μM baicalein or up to 75 µM myricetin, 24 h; for IC50: Homo sapiens, HL-60, after 24 h, viable cell count
Description: The human promyelocytic leukemia HL-60 and human acute Jurkat T cell leukemia cell lines were grown in 90% RPMI 1640 medium supplemented with 10% fetal bovine serum (FBS) at a temperature of 37 °C under a humidified 5% CO2 atmosphere. These cell lines were approved by short tandem repeat profiling, and the cells were passaged for no more than 2 months. Cells (2 × 10^6/mL) were seeded into 60-mm Petri dishes and incubated at 37 °C. The cells were harvested by treatment with 5 µM rottlerin. Viable cells were counted using the trypan blue exclusion method. The cell suspension was mixed on a slide with an equal volume of acridine orange solution (10 mg/mL). Green fluorescence was detected between 500 and 525 nm with a fluorescence microscope (Zeiss, Oberkochen, Germany). Cells were harvested and lysed overnight in digestion buffer (0.5% sarkosyl, 0.5 mg/mL proteinase K, 50 mM Tris-HCl, pH 8.0 and 10 mM ethylenediamine tetraacetic acid (EDTA) at 55 °C). Subsequently, cells were treated with 0.5 μg/mL RNase A for 2 h. Genomic DNA was extracted by phenol/chloroform/isoamyl alcohol extraction and analyzed by gel electrophoresis using 2% agarose.

Jurkat cells = assay: Cell growth and apoptosis in Jurkat cells; type: cell-based, human; conditions: for growth of Jurkat cells (in words): 100 µM baicalein or 75 µM myricetin (Figure S5); for apoptosis of Jurkat cells (in words): 100 µM baicalein or myricetin (Figure S5)
Description: The human promyelocytic leukemia HL-60 and human acute Jurkat T cell leukemia cell lines were grown in 90% RPMI 1640 medium supplemented with 10% fetal bovine serum (FBS) at a temperature of 37 °C under a humidified 5% CO2 atmosphere. These cell lines were approved by short tandem repeat profiling, and the cells were passaged for no more than 2 months.
Cells (2 × 10^6/mL) were seeded into 60-mm Petri dishes and incubated at 37 °C. The cells were harvested by treatment with 5 µM rottlerin. Viable cells were counted using the trypan blue exclusion method. The cell suspension was mixed on a slide with an equal volume of acridine orange solution (10 mg/mL). Green fluorescence was detected between 500 and 525 nm with a fluorescence microscope (Zeiss, Oberkochen, Germany).
Cells were harvested and lysed overnight in digestion buffer (0.5% sarkosyl, 0.5 mg/mL proteinase K, 50 mM Tris-HCl, pH 8.0 and 10 mM ethylenediamine tetraacetic acid (EDTA) at 55 °C). Subsequently, cells were treated with 0.5 μg/mL RNase A for 2 h. Genomic DNA was extracted by phenol/chloroform/isoamyl alcohol extraction and analyzed by gel electrophoresis using 2% agarose.
(C) and (D) Apoptotic bodies […]
(1 picture or pasted object on this page, not shown here)

ODC-empty HL-60 cells = assay: Cell growth and apoptosis in HL-60 cells with ODC-empty vector; type: cell-based, human; conditions: 50 μM baicalein or 75 µM myricetin; for cell growth of ODC-empty HL-60 cells (in words): 24 h
Description: (§1) Cells (2 × 10^6/mL) were seeded into 60-mm Petri dishes and incubated at 37 °C. The cells were harvested by treatment with 5 µM rottlerin. Viable cells were counted using the trypan blue exclusion method. The cell suspension was mixed on a slide with an equal volume of acridine orange solution (10 mg/mL). Green fluorescence was detected between 500 and 525 nm with a fluorescence microscope (Zeiss, Oberkochen, Germany). The ODC-empty vector (pcDNA3-ODC-empty) and ODC-overexpressing vector (pcDNA3-ODC-WT) were transfected into parental HL-60 cells according to calcium phosphate-mediated transfection. Stably transfected cells were selected with the antibiotic G418 (400 μg/mL). After three weeks, the isolated G418-resistant clones were individually selected to analyze the protein expression of ODC in the cells. Cells were harvested and lysed overnight in digestion buffer (0.5% sarkosyl, 0.5 mg/mL proteinase K, 50 mM Tris-HCl, pH 8.0 and 10 mM ethylenediamine tetraacetic acid (EDTA) at 55 °C). Subsequently, cells were treated with 0.5 μg/mL RNase A for 2 h. Genomic DNA was extracted by phenol/chloroform/isoamyl alcohol extraction and analyzed by gel electrophoresis using 2% agarose.

ODC-WT HL-60 cells = assay: Cell growth and apoptosis in ODC-overexpressing HL-60 cells; type: cell-based, human; conditions: for apoptosis in ODC-WT HL-60 cells (in words): 50 μM baicalein or 75 µM myricetin
Description: as §1, with “The cells were harvested by treatment with 5 µM rottlerin.” left out

O=c1cc(-c2ccccc2)oc2cc(O)c(O)c(O)c12 [Baicalein, 5,6,7-trihydroxyflavone]
IC50 (human ODC): 0.88 µM | Ki (human ODC; with respect to substrate L-ornithine, noncompetitive fit, read-out: Ki(ornithine) against ODC): 640 ± 180 nM | apoptosis in HL-60 cells (apoptotic bodies, DNA fragmentation) (HL-60 cells): exhibited apoptosis | IC50 (HL-60 cells): ~50 µM | cell death / growth suppression in HL-60 cells (in words) (HL-60 cells; baicalein 0–70 μM): cell death was dose-dependent | growth of Jurkat cells (in words) (Jurkat cells): suppressed the growth of Jurkat cells | apoptosis of Jurkat cells (in words) (Jurkat cells): induced cellular apoptosis with DNA fragmentation | apoptosis in ODC-empty HL-60 cells (in words) (ODC-empty HL-60 cells): appearance of apoptotic bodies and DNA fragmentation | cell growth of ODC-empty HL-60 cells (in words) (ODC-empty HL-60 cells): growth arrest | apoptosis in ODC-WT HL-60 cells (in words) (ODC-WT HL-60 cells): normal cell morphology and slight DNA fragmentation | cell growth of ODC-WT HL-60 cells (in words) (ODC-WT HL-60 cells; 50 μM baicalein, 24 h): growth arrest

O=c1c(O)c(-c2cc(O)c(O)c(O)c2)oc2cc(O)cc(O)c12 [Myricetin]
IC50 (human ODC): 7.3 µM | apoptosis in HL-60 cells (apoptotic bodies, DNA fragmentation) (HL-60 cells): induced apoptosis | IC50 (HL-60 cells): ~75 µM | growth of Jurkat cells (in words) (Jurkat cells): suppressed the growth of Jurkat cells | apoptosis of Jurkat cells (in words) (Jurkat cells): induced cellular apoptosis with DNA fragmentation | apoptosis in ODC-empty HL-60 cells (in words) (ODC-empty HL-60 cells): induced apoptotic bodies in ODC-empty cells | cell growth of ODC-empty HL-60 cells (in words) (ODC-empty HL-60 cells): more effective than in ODC-WT HL-60 cells | apoptosis in ODC-WT HL-60 cells (in words) (ODC-WT HL-60 cells): but not in ODC-WT HL-60 cells
